Several values for one entry are separate records, joined by “and”; a condition that tells them apart may be missing. Equal values may be shown once.
Columns and labels:
[1] = system: lymph node metastases; experiment: Lymph node imaging (PEARL) versus H/E staining; assay type: in vivo, human
Source text: After lymph node dissection, lymph nodes were identified by the attending pathologist and harvested if present. After harvesting, the single lymph nodes were imaged before further processing using PEARL imaging. The images were processed using ImageJ (FiJi). The fluorescent images were reviewed by 2 separate researchers blinded for histology, whether fluorescence was present. The pathologist, blinded for fluorescence images, evaluated whether the lymph node was positive for tumor invasion or isolated tumor cells based on H/E staining.

[2] = system: breast cancer, HNSCC, prostate cancer, and ovarian cancer; experiment: Phase 2 imaging of tumors 3-6 hours post dosing with multiple NIR cameras; assay type: in vivo, human
Protocol: The study also utilized data collected from different NIR cameras and from multiple sites. All patients received a single I.V. dose of Compound 1, followed by routine surgery approximately 3-6 hours after infusion of Compound 1. Pre-excision and post-excision intraoperative and backtable visualization a tumor from a breast cancer patient (101-001; UPenn; VisionSense NIR camera) dosed with Compound 1 (2 mg/kg) 6±3 hr prior to surgery and an HNSCC cancer patient (102-007; UTSW; NOVADAQ SPY Elite NIR camera) dosed with Compound 1 (3 mg/kg) 6±3 hr prior to surgery are shown in FIG. 22. In each case, white light imaging of the pre- or post-excised tumor/specimen is juxtaposed with an overlay of the fluorescence observed and the white light image, indicating the presence of the tumor. Intraoperative/in vivo imaging of prostate cancer from two patients (102-008 and 102-009; UTSW; Da Vinci Firefly NIR camera with updated software/hardware) dosed with Compound 1 (3 mg/kg) 6±3 hr prior to excision of the tumor and the imaging of wound bed after excision of the tumor are shown in FIG. 23. In each case, white light imaging of the pre-excised tumor/specimen and the surgical wound bed are juxtaposed with images of the fluorescence observed. […] A tumor from a patient (101-005) with ovarian cancer dosed with Compound 1 (3 mg/kg, 6±3 hr) was imaged in vivo pre-excision as shown in FIG. 24. A white light image juxtaposed with an overlay of the fluorescence observed and the white light image, indicating the presence of the tumor.

[3] = Safety (adverse effects) in dog-patients; assay type: in vivo; conditions: 7 dogs; 0.5-2.0 mg/kg; injection through discharge
Protocol: Materials and methods: After evaluation and recruitment for the study, dog-patients underwent (A) pre-operation analysis to identify possible types of lesion, and (B) Compound 1 tracer was administrated at 0.5 to 2.0 mg/kg, 18-78 hours prior to surgery. During the surgery (C) intra-operative imaging was performed using a Hamamatsu PDE or custom NIR camera before and after tumor removal (or after limb amputations). Resected tissues were (D) imaged with a LI-COR Pearl Imaging station and tumor-to-normal-tissue ratios were calculated accordingly. The resected tissues were then (E) preserved for histopathology validation. Safety was assessed separately in terms of adverse effects through physical examinations, laboratory tests and the recording of adverse events from infusion through discharge from hospital.
Results: A summary of the data from spayed or neutered dog patients that were recruited for the study is shown below (Table 16). Results from a total of seven dogs of different breeds, aged 4-12 years, body weights ranging from 20.9-59.5 kg, and with a range of tumors ware presented, including instances where more than one tumor was present. Doses studied thus far ranged from 0.5-2.0 mg/kg. […] Both acute and chronic adverse effects were monitored from the time of injection through discharge of the animals from the hospital and follow-up appointments (to remove sutures) and noted.

[4] = 403 lymph nodes across 4 tumor types
[5] = TOTAL of all patients, 403 lymph nodes
[6] = lymph nodes per patient, fluorescence vs H/E pathology

PEO90-140-b-P(DBA60-150-r-ICG0-3-r-AMA0-3) [Compound 1]
Overall sensitivity in lymph nodes ([1]; 30/(30+34)): 0.47 | Overall specificity in lymph nodes ([1]; 293/(46+293)): 0.86 | Lymph nodes fluorescence negative / H/E negative [1, 4]: 293 of 339 and 293 | Lymph nodes fluorescence negative / H/E positive [1, 4]: 34 | Lymph nodes fluorescence negative, TOTAL [1, 4]: 327 | Lymph nodes fluorescence positive / H/E negative [1, 4]: 46 | Lymph nodes fluorescence positive / H/E positive [1, 4]: 30 | Lymph nodes fluorescence positive, TOTAL [1, 4]: 76 | False Negatives n [1, 5]: 34 | False Positives n [1, 5]: 46 | True Negatives n [1, 5]: 293 | True Positives n [1, 5]: 30 | False Negatives n [1, 6]: 0 (23×) and 1 (4×) and 3 and 2 and 25 | False Positives n [1, 6]: 0 (12×) and 3 (4×) and 1 (9×) and 4 and 2 (2×) and 6 and 11 | True Negatives n [1, 6]: 0 (12×) and 50 and 14 (2×) and 7 and 44 and 20 and 2 (3×) and 34 and 1 (2×) and 15 and 41 and 8 and 16 and 18 and 4 | True Positives n [1, 6]: 2 (2×) and 0 (22×) and 1 (4×) and 12 and 10 | Intraoperative fluorescence in prostate cancer ([2]; 3 mg/kg, 6±3 hr, Da Vinci Firefly camera): fluoresced intraoperatively | Fluorescence in the surgical bed after prostate tumor excision ([2]; 3 mg/kg, 6±3 hr, negative margins confirmed through pathology): No fluorescence was detected | Fluorescence in BC and HNSCC tumors ([2]; 3-5 hour dose schedule timing, SPY Elite camera): verified in all visible BC and HNSCC tumors | Ability to image tumors 3-6 hours after I.V. injection ([2]; Phase 2, breast cancer, HNSCC, prostate cancer, ovarian cancer, 2-3 mg/kg): demonstrated | Adverse effects [3]: no adverse effects

— patent US20230025280A1, “PH RESPONSIVE COMPOSITIONS, FORMULATIONS, AND METHODS OF IMAGING A TUMOR” (ONCONANO MEDICINE, INC, priority 2019, published 2023)
